Like-named read-outs stand apart in the source and are kept apart here. Marks after values point to notes of the source that are not given here.
Key:
[1] = parameters: method as in earlier work; conditions: cited from earlier work
[2] = cited from earlier work
[3] = Zinc(II)-ligand stability constants, potentiometric titration in NaCl; type: binding
Experimental: (§1) Potentiometric measurements were carried out at T = 298.1 ± 0.1 K in thermostatted cells. The setup consisted of a Metrohm model 888 Titrando apparatus controlled by Metrohm TiAMO 1.2 software equipped with a combined gel electrode (VWR model 662 1759). Estimated precision was 0.2 mV and 0.003 ml for the electromotive force and titrant volume readings, respectively. All the potentiometric titrations were carried out under magnetic stirring and bubbling purified presaturated N2 through the solution to exclude O2 and CO2.
(§2) A 30 ml solution containing each ligand ([L] = 5 – 10 mM), NaCl and HCl was titrated with standard NaOH solutions. For the zinc(II)/ligand systems, the titrant solutions consisted of different amounts of ligand ([L] = 5 − 10 mM), zinc(II) ([Zn] = 0.5—5 mM) and a suitable amount of HCl and NaCl. All the measurements were carried out with an excess of the ligand, with respect to zinc(II) and at different zinc(II):ligand molar ratios. The selection of ratios investigated was determined by simulating titrations using Hyperquad Simulation and Speciation computer software (HySS)[41]. [Zn] and [L] were negligible compared to the background electrolyte concentrations. […] To account for the influence of zinc(II) hydrolysis in the zinc(II)/ligand systems, zinc(II) titrations were carried out separately at each ionic strength to determine the hydroxide constants so that these constants could be included in the equilibrium model used to refine the titration data. In these titrations, the zinc(II) concentration in the analyte solution was 0.7 mM.
(§3) Before each experiment, independent titrations of strong acid solutions with standard base were carried out under the same medium and ionic strength conditions as the systems to be investigated, with the aim of determining the electrode potential (E^0’) using GLEE software. In this way, the pH scale used was the […], pH = -log [H]^+, where [H]^+ is the free proton concentration. For each titration, approximately 80 to 100 data points were collected. The equilibrium state during titrations was checked by confirming the time required to reach equilibrium.
(§4) The software program Hyperquad was used to determine the equilibrium model and to calculate pKa and stability constants from the potentiometric data set[43]. For each set of pKa constants or zinc(II):ligand ratio studied, at least two repeat titrations were performed. The titration curves for each system were treated as a single set when refining the stability constants. This meant that the refinement procedure was run on both curves at the same time to derive a single set of constants. The error reported on the stability constants is the standard deviation given in the Hyperquad output file. Examples of Hyperquad files for the zinc(II)/PYR system are provided on the Zenodo repository (https://doi.org/10.5281/zenodo.4641710).
(§5) The ionic strength dependence of the stability constants was studied with the modified version of the Extended Debye–Hückel equation[28]. The Monte Carlo method, as described by Hu et al.[43], was used to estimate 95% confidence intervals on the parameters of ionic strength dependence; for each species, predicted stability constants were resampled using an inverse of the cumulative normal distribution function to give sets of simulated data from which the unknown parameters were optimized. An example Excel calculation file for the application of the modified version of the Extended Debye–Hückel equation to the zinc(II)/PYR system (including the calculation of error on parameters of ionic strength dependence) has been uploaded to the Zenodo repository (https://doi.org/10.5281/zenodo.4641710).
(§6) To quantify the improvement of using a direct vs. indirect method for studying ionic strength dependence, the Davies equation (Eq. 3) was applied to the zinc(II)/PYR data. Speciation calculations for a [Zn] = 10^–6 M and [L] = 10^–5 M system at infinite dilution were conducted with the aid of HySS. […]

[4] = Ligand protonation constants, potentiometric titration in NaCl; type: physicochemical; conditions: T = 298.1 K
Experimental: as §1, §2, §3, §4, §5, §6

[5] = parameter of ionic strength dependence
[6] = parameter of ionic strength dependence, NaCl

For `CC(=O)N(O)CCCCCNC(=O)CCC(=O)N(O)CCCCCNC(=O)CCC(=O)N(O)CCCCCN` [DFOB, desferrioxamine B], the “log β, 2H+ + L3− = H2L−” value ([1]; 0.05 M NaCl, T = 298.1 K) is listed as 20.94 ± 0.09, the “log β, 3H+ + L3− = H3L” value ([1]; 0.05 M NaCl, T = 298.1 K) is listed as 30.05 ± 0.12 and the “log β, 4H+ + L3− = H4L+” value ([1]; 0.05 M NaCl, T = 298.1 K) is listed as 38.83 ± 0.14. For the same compound, the “log β, H+ + L3− = HL2−” value ([1]; 0.05 M NaCl, T = 298.1 K) was 11.07 ± 0.07, the “log β, 2H+ + L3− = H2L−” value ([1]; 0.15 M NaCl, T = 298.1 K) was 20.25 ± 0.06 and the “log β, 3H+ + L3− = H3L” value ([1]; 0.15 M NaCl, T = 298.1 K) was 29.10 ± 0.09. The “log β, 4H+ + L3− = H4L+” value ([1]; 0.15 M NaCl, T = 298.1 K) was 37.46 ± 0.13, the “log β, H+ + L3− = HL2−” value ([1]; 0.15 M NaCl, T = 298.1 K) was 10.74 ± 0.04 and the “log β, 2H+ + L3− = H2L−” value ([1]; 0.30 M NaCl, T = 298.1 K) was 19.84 ± 0.04. The “log β, 3H+ + L3− = H3L” value ([1]; 0.30 M NaCl, T = 298.1 K) was 28.61 ± 0.07, the “log β, 4H+ + L3− = H4L+” value ([1]; 0.30 M NaCl, T = 298.1 K) was 37.00 ± 0.10 and the “log β, H+ + L3− = HL2−” value ([1]; 0.30 M NaCl, T = 298.1 K) was 10.36 ± .02. The “log β, 2H+ + L3− = H2L−” value ([1]; 0.70 M NaCl, T = 298.1 K) was 19.77 ± 0.04, the “log β, 3H+ + L3− = H3L” value ([1]; 0.70 M NaCl, T = 298.1 K) was 28.60 ± 0.08 and the “log β, 4H+ + L3− = H4L+” value ([1]; 0.70 M NaCl, T = 298.1 K) was 36.97 ± 0.16. For the same compound, the “log β, H+ + L3− = HL2−” value ([1]; 0.70 M NaCl, T = 298.1 K) was 10.35 ± 0.02, the “log β, 2H+ + L3− = H2L−” value ([1]; 1.00 M NaCl, T = 298.1 K) was 19.77 ± 0.08 and the “log β, 3H+ + L3− = H3L” value ([1]; 1.00 M NaCl, T = 298.1 K) was 28.57 ± 0.12. The “log β, 4H+ + L3− = H4L+” value ([1]; 1.00 M NaCl, T = 298.1 K) was 36.92 ± 0.14, the “log β, H+ + L3− = HL2−” value ([1]; 1.00 M NaCl, T = 298.1 K) was 10.14 ± 0.06 and the “logβ^0, 2H+ + L3− = H2L−” value ([1]; intrinsic, T = 298.1 K) was 21.530 ± 0.006. The “logβ^0, 3H+ + L3− = H3L” value ([1]; intrinsic, T = 298.1 K) was 30.691 ± 0.012, the “logβ^0, 4H+ + L3− = H4L+” value ([1]; intrinsic, T = 298.1 K) was 39.250 ± 0.023 and the “logβ^0, H+ + L3− = HL2−” value ([1]; intrinsic, T = 298.1 K) was 11.491 ± 0.003. For the same compound, the “C, 3H+ + L3− = H3L” value [1, 5] was 0.194 ± 0.012, the “log β, Zn2+ + 2H+ + L3- = ZnH2L+” value ([2]; 0.05 M NaCl, T = 298.1 K) was 29.30±0.13 and the “log β, Zn2+ + H+ + L3- = ZnHL” value ([2]; 0.05 M NaCl, T = 298.1 K) was 21.55±0.11. For the same compound, the “log β, Zn2+ + L3- = ZnL-” value ([2]; 0.05 M NaCl, T = 298.1 K) was 11.67±0.06, the “log β, Zn2+ + 2H+ + L3- = ZnH2L+” value ([2]; 0.15 M NaCl, T = 298.1 K) was 27.81±0.05 and the “log β, Zn2+ + H+ + L3- = ZnHL” value ([2]; 0.15 M NaCl, T = 298.1 K) was 19.85±0.04. The “log β, Zn2+ + L3- = ZnL-” value ([2]; 0.15 M NaCl, T = 298.1 K) was 9.91±0.02, the “log β, Zn2+ + 2H+ + L3- = ZnH2L+” value ([2]; 0.30 M NaCl, T = 298.1 K) was 27.42±0.08 and the “log β, Zn2+ + H+ + L3- = ZnHL” value ([2]; 0.30 M NaCl, T = 298.1 K) was 19.85±0.06. The “log β, Zn2+ + L3- = ZnL-” value ([2]; 0.30 M NaCl, T = 298.1 K) was 9.97±0.04, the “log β, Zn2+ + 2H+ + L3- = ZnH2L+” value ([2]; 0.70 M NaCl, T = 298.1 K) was 27.19±0.12 and the “log β, Zn2+ + H+ + L3- = ZnHL” value ([2]; 0.70 M NaCl, T = 298.1 K) was 19.34±0.09. The “log β, Zn2+ + L3- = ZnL-” value ([2]; 0.70 M NaCl, T = 298.1 K) was 9.39±0.05, the “log β, Zn2+ + 2H+ + L3- = ZnH2L+” value ([2]; 1.00 M NaCl, T = 298.1 K) was 27.25±0.08 and the “log β, Zn2+ + H+ + L3- = ZnHL” value ([2]; 1.00 M NaCl, T = 298.1 K) was 19.38±0.06. For the same compound, the “log β, Zn2+ + L3- = ZnL-” value ([2]; 1.00 M NaCl, T = 298.1 K) was 9.32±0.04, the “decrease of the 1:1 zinc(II) stability constant” value ([2]; between 0.05 and 1.00 M NaCl) was 21% and the “logβ0, Zn2+ + 2H+ + L3- = ZnH2L+” value ([2]; intrinsic, T = 298.1 K) was 29.872±0.027. For the same compound, the “logβ0, Zn2+ + H+ + L3- = ZnHL” value ([2]; intrinsic, T = 298.1 K) was 22.105±0.026, the “logβ0, Zn2+ + L3- = ZnL-” value ([2]; intrinsic, T = 298.1 K) was 12.027±0.039 and the “C, Zn2+ + 2H+ + L3- = ZnH2L+” value [2, 5] was 0.009±0.051. For the same compound, the “C, Zn2+ + H+ + L3- = ZnHL” value [2, 5] was -0.075±0.053 and the “C, Zn2+ + L3- = ZnL-” value [2, 5] was -0.486±0.077.
In the case of `O=C(O)CO` [GLY, glycolic acid], the “log β, Zn2+ + L = ZnL (1:1)” value ([3]; 0.05 M NaCl, T = 298.1 K) is reported as 2.83±0.02, the “log β, Zn2+ + L = ZnL (1:1)” value ([3]; 0.15 M NaCl, T = 298.1 K) is reported as 2.10±0.01 and the “log β, Zn2+ + L = ZnL (1:1)” value ([3]; 0.30 M NaCl, T = 298.1 K) is reported as 1.93±0.01. For the same compound, the “log β, Zn2+ + L = ZnL (1:1)” value ([3]; 0.70 M NaCl, T = 298.1 K) was 1.25±0.03, the “stability lower than the equivalent 1:1 zinc(II)-PYR structure” value ([3]; 1:1 zinc(II) complex) was “approximately 7 logβ units” and the “log β, Zn2+ + L = ZnL (1:1)” value ([3]; 1.00 M NaCl, T = 298.1 K) was 0.83±0.04. The “decrease in the 1:1 zinc(II) stability constant” value ([3]; between 0.00 and 1.00 M NaCl) was ~80%, the “decrease of the 1:1 zinc(II) stability constant” value ([3]; between 0.00 and 1.00 M NaCl) was 2.19 logβ units and the “logβ0, Zn2+ + L = ZnL (1:1)” value ([3]; intrinsic, modified Extended Debye–Hückel fit (direct), T = 298.1 K) was 3.018±0.003. For the same compound, the “C, Zn2+ + L = ZnL (1:1)” value [3, 6] was -1.418±0.006, the “log β, H+ + L = HL” value ([4]; 0.05 M NaCl) was 3.55 ± 0.01 and the “log β, H+ + L = HL” value ([4]; 0.15 M NaCl) was 3.49 ± 0.01. The “log β, H+ + L = HL” value ([4]; 0.30 M NaCl) was 3.54 ± 0.01, the “log β, H+ + L = HL” value ([4]; 0.70 M NaCl) was 3.44 ± 0.01 and the “log β, H+ + L = HL” value ([4]; 1.00 M NaCl) was 3.39 ± 0.01. The “logβ^0, H+ + L = HL” value ([4]; intrinsic, modified Extended Debye–Hückel fit (direct)) was 3.750^b and the “C, H+ + L = HL” value [4, 6] was 0.070^b.
